Measured values published in paper PMC8865417, “Receptor Interaction Profiles of 4-Alkoxy-3,5-Dimethoxy-Phenethylamines (Mescaline Derivatives) and Related Amphetamines” (Frontiers in Pharmacology, 2022).
Read-outs that look alike come from different tables or passages of the source.

How the values were obtained:
[1] = test system: humans; conditions: cited from earlier work
[2] = molecular target: T1, hNET (Homo sapiens, UniProt P23975); test: Radioligand binding at hNET (N-methyl-[3H]nisoxetine)
T1 construct: expressed in transfected cells; host or cells: HEK 293 cells (membrane preparations)
T1 sequence (P23975 whole entry): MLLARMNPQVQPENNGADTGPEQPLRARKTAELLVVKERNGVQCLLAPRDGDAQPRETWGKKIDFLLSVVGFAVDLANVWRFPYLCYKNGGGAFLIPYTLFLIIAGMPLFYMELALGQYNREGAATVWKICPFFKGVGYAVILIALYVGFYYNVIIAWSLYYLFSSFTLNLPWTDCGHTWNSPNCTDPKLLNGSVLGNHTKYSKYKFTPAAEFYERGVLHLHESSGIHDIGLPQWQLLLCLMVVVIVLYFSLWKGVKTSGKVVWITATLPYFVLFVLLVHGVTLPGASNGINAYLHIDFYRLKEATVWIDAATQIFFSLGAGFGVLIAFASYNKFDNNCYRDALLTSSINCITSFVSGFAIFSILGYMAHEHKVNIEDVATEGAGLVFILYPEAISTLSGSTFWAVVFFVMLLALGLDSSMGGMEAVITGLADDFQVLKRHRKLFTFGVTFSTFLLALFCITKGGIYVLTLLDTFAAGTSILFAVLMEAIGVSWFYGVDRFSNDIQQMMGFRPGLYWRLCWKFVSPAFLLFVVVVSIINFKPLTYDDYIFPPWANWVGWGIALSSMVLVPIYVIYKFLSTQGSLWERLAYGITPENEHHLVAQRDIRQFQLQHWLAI

[3] = molecular target: T2, mouse TAAR1 (Mus musculus, UniProt Q923Y8); test: Radioligand binding at mouse TAAR1 ([3H]RO5166017)
T2 construct: expressed in transfected cells; host or cells: HEK 293 cells (membrane preparations)
T2 sequence (Q923Y8 whole entry): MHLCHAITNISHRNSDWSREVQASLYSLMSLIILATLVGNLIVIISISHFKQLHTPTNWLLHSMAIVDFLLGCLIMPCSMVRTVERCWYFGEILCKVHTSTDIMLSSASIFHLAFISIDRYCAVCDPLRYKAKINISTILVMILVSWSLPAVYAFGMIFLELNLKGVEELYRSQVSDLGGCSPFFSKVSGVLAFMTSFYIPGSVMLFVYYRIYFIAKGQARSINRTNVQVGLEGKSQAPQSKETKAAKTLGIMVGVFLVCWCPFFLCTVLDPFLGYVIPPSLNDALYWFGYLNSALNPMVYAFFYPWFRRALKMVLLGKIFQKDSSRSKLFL

[4] = molecular target: T3, h5-HT1A receptor (Homo sapiens, UniProt P08908); test: Radioligand binding at h5-HT1A receptor ([3H]8-OH-DPAT)
T3 construct: expressed in transfected cells; host or cells: HEK 293 cells (membrane preparations)
T3 sequence (P08908 1-422): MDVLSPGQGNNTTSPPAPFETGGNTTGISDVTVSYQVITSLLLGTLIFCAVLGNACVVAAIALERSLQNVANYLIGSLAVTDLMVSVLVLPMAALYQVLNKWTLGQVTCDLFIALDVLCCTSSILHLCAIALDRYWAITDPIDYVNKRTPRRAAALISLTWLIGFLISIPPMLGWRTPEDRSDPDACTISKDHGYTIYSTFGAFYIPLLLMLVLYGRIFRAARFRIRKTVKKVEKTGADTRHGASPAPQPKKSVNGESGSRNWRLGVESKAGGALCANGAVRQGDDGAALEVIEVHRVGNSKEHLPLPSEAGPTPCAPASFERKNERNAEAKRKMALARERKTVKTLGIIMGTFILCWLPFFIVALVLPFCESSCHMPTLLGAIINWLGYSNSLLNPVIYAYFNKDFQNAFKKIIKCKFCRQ

[5] = molecular target: T4, hSERT (Homo sapiens, UniProt P31645); test: Radioligand binding at hSERT ([3H]citalopram)
T4 construct: expressed in transfected cells; host or cells: HEK 293 cells (membrane preparations)
T4 sequence (P31645 whole entry): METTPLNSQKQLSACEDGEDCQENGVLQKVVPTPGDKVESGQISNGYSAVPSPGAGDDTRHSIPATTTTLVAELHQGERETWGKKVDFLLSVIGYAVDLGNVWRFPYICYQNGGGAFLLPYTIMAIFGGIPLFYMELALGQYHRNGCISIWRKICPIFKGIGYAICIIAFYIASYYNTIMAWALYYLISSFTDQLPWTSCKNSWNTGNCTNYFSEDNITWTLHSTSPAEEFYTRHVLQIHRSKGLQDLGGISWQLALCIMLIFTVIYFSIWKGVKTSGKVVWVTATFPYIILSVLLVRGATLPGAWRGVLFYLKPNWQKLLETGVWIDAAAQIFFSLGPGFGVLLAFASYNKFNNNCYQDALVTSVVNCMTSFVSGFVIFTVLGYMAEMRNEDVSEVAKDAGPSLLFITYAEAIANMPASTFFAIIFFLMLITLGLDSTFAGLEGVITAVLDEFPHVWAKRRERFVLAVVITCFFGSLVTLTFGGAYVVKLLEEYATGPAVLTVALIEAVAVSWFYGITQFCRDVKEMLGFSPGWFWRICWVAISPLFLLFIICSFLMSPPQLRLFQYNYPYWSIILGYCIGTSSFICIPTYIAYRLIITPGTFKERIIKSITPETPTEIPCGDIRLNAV

[6] = molecular target: T5, hα2A adrenergic receptor (Homo sapiens, UniProt P08913); test: Radioligand binding at hα2A adrenergic receptor ([3H]rauwolscine)
T5 construct: expressed in transfected cells; host or cells: Chinese hamster lung cells (membrane preparations)
T5 sequence (P08913 1-465): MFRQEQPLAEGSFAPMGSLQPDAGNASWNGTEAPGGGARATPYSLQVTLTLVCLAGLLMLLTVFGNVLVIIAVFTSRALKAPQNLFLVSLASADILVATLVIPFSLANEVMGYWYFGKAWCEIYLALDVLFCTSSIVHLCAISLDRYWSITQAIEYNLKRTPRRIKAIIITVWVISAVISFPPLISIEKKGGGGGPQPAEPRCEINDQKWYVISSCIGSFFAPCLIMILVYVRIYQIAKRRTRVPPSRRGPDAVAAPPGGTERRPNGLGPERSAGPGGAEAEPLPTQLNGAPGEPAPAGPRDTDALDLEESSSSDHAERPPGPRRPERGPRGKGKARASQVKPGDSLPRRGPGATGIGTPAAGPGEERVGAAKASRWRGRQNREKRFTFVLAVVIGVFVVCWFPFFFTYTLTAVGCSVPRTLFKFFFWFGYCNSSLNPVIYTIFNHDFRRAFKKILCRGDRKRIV

[7] = molecular target: T6, h5-HT2C receptor (Homo sapiens, UniProt P28335); test: biochemical; assay type: binding; conditions: [3H]mesulergine; mean ± SD; read-out: h5-HT2C Receptor binding Ki ± SD
T6 construct: expressed in transfected cells; host or cells: HEK 293 cells (membrane preparations)
T6 sequence (P28335 33-458): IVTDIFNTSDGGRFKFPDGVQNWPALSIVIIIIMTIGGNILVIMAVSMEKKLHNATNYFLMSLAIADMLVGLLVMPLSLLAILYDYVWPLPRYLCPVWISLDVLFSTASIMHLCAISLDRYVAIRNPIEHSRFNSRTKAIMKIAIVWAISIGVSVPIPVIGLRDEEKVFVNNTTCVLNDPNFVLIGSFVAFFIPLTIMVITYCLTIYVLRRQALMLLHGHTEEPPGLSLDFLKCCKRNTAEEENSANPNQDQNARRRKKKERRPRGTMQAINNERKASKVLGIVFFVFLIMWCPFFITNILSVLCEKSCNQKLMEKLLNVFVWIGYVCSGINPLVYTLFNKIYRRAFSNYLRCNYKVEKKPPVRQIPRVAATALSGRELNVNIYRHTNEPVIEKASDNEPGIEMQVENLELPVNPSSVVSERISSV

[8] = molecular target: T7, rat TAAR1 (Rattus norvegicus, UniProt Q923Y9); test: Radioligand binding at rat TAAR1 ([3H]RO5166017)
T7 construct: expressed in transfected cells; host or cells: HEK 293 cells (membrane preparations)
T7 sequence (Q923Y9 whole entry): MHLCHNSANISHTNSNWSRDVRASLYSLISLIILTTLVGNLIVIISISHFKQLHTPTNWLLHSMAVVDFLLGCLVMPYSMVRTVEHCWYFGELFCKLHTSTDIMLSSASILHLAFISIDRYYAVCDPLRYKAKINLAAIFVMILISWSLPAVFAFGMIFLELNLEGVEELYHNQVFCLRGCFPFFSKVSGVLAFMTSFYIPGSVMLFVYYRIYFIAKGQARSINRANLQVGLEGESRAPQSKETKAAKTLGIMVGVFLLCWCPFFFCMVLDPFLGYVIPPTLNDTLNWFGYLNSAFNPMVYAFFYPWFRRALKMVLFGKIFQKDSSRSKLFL

[9] = molecular target: T8, h5-HT2A receptor (Homo sapiens, UniProt P28223); test: Radioligand binding at h5-HT2A receptor ([3H]ketanserin); conditions: for Selectivity 5-HT2A vs. 5-HT1A / Selectivity 5-HT2A vs. 5-HT2C: binding ratio; for Ki: h5-HT2A Receptor binding Ki ± SD, [3H]ketanserin, mean ± SD
T8 construct: expressed in transfected cells; host or cells: HEK 293 cells (membrane preparations)
T8 sequence (P28223 whole entry): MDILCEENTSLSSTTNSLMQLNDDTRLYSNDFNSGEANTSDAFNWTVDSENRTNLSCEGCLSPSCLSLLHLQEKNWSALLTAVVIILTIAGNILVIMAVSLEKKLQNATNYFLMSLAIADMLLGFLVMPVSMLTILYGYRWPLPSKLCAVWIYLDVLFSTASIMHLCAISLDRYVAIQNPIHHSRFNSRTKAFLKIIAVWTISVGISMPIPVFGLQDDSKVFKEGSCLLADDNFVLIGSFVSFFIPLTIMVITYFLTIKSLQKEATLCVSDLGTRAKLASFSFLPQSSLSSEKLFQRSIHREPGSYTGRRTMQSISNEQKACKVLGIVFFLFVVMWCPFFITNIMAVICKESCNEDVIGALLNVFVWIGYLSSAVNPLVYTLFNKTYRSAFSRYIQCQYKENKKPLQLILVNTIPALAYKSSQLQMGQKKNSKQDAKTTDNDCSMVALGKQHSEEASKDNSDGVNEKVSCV

[10] = molecular target: human 5-HT2A receptor (Homo sapiens, UniProt P28223); conditions: for Emax: NIH3T3, read-out: h5-HT2A Activation efficacy max ± SD, relative to 5-HT = 100%
Sequence of human 5-HT2A receptor (P28223 whole entry): as above

[11] = molecular target: T9, hDAT (Homo sapiens, UniProt Q01959); test: Radioligand binding at hDAT ([3H]WIN35,428)
T9 construct: expressed in transfected cells; host or cells: HEK 293 cells (membrane preparations)
T9 sequence (Q01959 whole entry): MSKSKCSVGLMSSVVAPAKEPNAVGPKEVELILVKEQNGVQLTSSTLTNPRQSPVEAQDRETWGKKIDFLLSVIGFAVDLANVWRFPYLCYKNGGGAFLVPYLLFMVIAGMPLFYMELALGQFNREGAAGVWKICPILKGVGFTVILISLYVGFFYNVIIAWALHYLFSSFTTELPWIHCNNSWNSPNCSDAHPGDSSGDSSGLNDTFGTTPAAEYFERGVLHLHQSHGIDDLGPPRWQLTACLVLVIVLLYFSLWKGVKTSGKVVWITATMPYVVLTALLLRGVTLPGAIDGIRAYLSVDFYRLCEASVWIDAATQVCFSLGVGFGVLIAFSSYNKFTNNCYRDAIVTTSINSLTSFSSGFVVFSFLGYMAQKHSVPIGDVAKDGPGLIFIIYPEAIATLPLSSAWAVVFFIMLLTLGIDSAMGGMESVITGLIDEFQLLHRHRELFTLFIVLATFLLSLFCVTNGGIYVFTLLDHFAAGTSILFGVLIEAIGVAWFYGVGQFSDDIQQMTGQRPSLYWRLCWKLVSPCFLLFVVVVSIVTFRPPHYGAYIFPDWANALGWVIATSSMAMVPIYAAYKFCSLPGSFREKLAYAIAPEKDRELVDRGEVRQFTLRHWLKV

[12] = molecular target: T10, hα1A adrenergic receptor (Homo sapiens, UniProt P35348); test: Radioligand binding at hα1A adrenergic receptor ([3H]prazosin); conditions: mean ± SD
T10 construct: expressed in transfected cells; host or cells: Chinese hamster ovary cells (membrane preparations)
T10 sequence (P35348 1-466): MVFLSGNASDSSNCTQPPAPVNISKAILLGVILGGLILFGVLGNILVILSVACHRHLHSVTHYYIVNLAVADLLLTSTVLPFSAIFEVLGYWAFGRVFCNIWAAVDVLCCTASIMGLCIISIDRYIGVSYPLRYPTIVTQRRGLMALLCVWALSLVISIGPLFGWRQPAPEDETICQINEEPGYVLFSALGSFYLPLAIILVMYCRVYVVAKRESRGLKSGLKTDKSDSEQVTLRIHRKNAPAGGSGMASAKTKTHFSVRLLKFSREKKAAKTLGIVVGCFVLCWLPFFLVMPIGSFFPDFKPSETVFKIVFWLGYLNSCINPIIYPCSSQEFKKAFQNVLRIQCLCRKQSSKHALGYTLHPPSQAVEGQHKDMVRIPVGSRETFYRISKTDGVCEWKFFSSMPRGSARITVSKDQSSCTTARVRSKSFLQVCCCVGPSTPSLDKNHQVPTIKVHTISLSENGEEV

[13] = molecular target: T11, dopaminergic hD2 receptor (Homo sapiens, UniProt P14416); test: Radioligand binding at dopaminergic hD2 receptor ([3H]spiperone)
T11 construct: expressed in transfected cells; host or cells: HEK 293 cells (membrane preparations)
T11 sequence (P14416 whole entry): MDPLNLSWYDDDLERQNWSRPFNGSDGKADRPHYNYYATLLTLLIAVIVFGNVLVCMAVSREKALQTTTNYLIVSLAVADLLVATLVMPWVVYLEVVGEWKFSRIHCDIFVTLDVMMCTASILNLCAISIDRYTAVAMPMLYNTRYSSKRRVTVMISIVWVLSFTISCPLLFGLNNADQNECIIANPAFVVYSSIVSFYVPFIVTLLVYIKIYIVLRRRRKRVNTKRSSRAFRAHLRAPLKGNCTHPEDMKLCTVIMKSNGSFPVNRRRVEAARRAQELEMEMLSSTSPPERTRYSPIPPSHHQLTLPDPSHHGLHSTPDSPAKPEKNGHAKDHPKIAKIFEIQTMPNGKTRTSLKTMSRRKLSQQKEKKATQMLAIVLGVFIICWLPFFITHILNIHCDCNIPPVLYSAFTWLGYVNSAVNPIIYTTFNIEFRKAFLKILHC

[14] = molecular target: human 5-HT2B receptor (Homo sapiens, UniProt P41595); conditions: for EC50: h5-HT2B Activation potency EC50 ± SD, HEK 293 cells, calcium FLIPR, mean ± SD; for Emax: HEK293, read-out: h5-HT2B Activation efficacy max ± SD, relative to 5-HT = 100%
Sequence of human 5-HT2B receptor (P41595 whole entry): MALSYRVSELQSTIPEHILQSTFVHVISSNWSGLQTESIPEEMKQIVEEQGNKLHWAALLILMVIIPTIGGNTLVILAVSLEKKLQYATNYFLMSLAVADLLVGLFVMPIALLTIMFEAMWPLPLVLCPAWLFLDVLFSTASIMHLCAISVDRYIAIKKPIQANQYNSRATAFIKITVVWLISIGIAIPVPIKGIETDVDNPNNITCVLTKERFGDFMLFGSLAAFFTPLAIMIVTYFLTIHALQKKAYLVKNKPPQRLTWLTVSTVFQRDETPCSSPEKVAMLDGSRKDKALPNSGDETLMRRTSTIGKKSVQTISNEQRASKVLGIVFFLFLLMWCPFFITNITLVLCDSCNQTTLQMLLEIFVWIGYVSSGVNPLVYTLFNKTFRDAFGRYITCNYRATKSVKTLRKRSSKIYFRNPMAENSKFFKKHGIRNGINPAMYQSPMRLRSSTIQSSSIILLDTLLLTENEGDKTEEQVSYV

Row | SMILES | Ki [2] | Ki [3] | Ki [4] | Ki [5] | Ki [6] | Ki [7] | Ki [8] | Selectivity 5-HT2A vs. 5-HT2C [9] | Ki [9] | EC50 [10] | Emax [10] | Ki [11] | Ki [12] | Ki [13] | EC50 [14] | Emax [14] | further results
1 | COc1cc(CC(C)N)c(OC)cc1Br (stereo not drawn) [compound 2, 4-bromo-2,5-dimethoxyamphetamine, reference compound] |  |  |  |  |  |  |  |  |  |  |  |  |  |  |  |  | Psychedelic / active dose in humans ([1]; ref Shulgin and Shulgin 1991): 1 to 3 mg
2 | COc1cc(CC(C)N)c(OC)cc1C (stereo not drawn) [compound 7, 2,5-dimethoxy-4-methylamphetamine, reference compound] |  |  |  |  |  |  |  |  |  |  |  |  |  |  |  |  | Psychedelic / active dose in humans ([1]; ref Shulgin and Shulgin 1991): 3 to 10 mg
3 | COc1cc(CCN)cc(OC)c1SC [compound 10, 4-thiomescaline, reference compound] |  |  |  |  |  |  |  |  |  |  |  |  |  |  |  |  | Increase in human potency compared to mescaline (5) ([1]; ref Shulgin and Shulgin 1991): 10 fold; Psychedelic / active dose in humans ([1]; ref Shulgin and Shulgin 1991): 20 to 40 mg
4 | COc1cc(CCN)cc(OC)c1OC(F)F [compound 12, 4-difluoromethoxy-3,5-dimethoxyphenethylamine] | > 9.7 µM | > 4.2 µM | 2.5 µM | > 7.5 µM | 1.7 µM | 2.8 µM | 0.88 ± 0.18 µM | 0.8 | 3.5 µM | 1.5 µM | 85 to 94% | > 8.5 µM | 8 µM | > 6.3 µM | > 10 µM |  | Selectivity 5-HT2A vs. 5-HT1A [9]: 0.7; Increase in human potency compared to mescaline (5) ([1]; ref Trachsel 2012): 4 fold
5 | COc1cc(CCN)cc(OC)c1OCCF [compound 16, 3,5-dimethoxy-4-(2-fluoroethoxy)phenethylamine] | > 9.7 µM | > 4.2 µM | > 5.6 µM | > 7.5 µM | 3.7 µM | 5.7 µM | > 4 µM |  | > 12 µM | 5.7 µM | 85 to 94% | > 8.5 µM | > 8.7 µM | > 6.3 µM | 2.3 µM | 29 ± 7% | 
6 | COc1cc(CCN)cc(OC)c1OCC(F)F [compound 17, 4-(2,2-difluoroethoxy)-3,5-dimethoxyphenethylamine] | > 9.7 µM | > 4.2 µM | > 5.6 µM | > 7.5 µM | 2.7 µM | 2.7 µM | 2.1 µM | 0.9 | 2.9 µM | 1.3 µM | 44 to 78% | > 8.5 µM | > 8.7 µM | > 6.3 µM | 1.7 µM | 25 ± 7% | 
7 | COc1cc(CC(C)N)cc(OC)c1OCC(F)F (stereo not drawn) [compound 19, 4-(2,2-difluoroethoxy)-3,5-dimethoxyamphetamine] | > 9.7 µM | > 4.2 µM | > 5.6 µM | > 7.5 µM | > 5.1 µM | 2.6 µM | 3.9 µM | 1.7 | 1.5 µM | 0.12 ± 0.02 µM | 86 to 102% | > 8.5 µM | > 8.7 µM | > 6.3 µM | 0.26 ± 0.03 µM | 18 to 29% | 
8 | COc1cc(CC(C)N)cc(OC)c1OCCF (stereo not drawn) [compound 20, 3,5-dimethoxy-4-(2-fluoroethoxy)amphetamine] | > 9.7 µM | > 4.2 µM | > 5.6 µM | > 7.5 µM | > 5.1 µM | 8.4 µM | > 4.7 µM |  | 12 µM | 0.12 ± 0.04 µM | 86 to 102% | > 8.5 µM | > 8.7 µM | > 6.3 µM | 0.8 ± 0.24 µM | 18 to 29% | Selectivity 5-HT2A vs. 5-HT1A [9]: >1
9 | COc1cc(CCN)cc(OC)c1OC(C)C [compound 22, 3,5-dimethoxy-4-isopropoxyphenethylamine] | > 9.7 µM | > 4.2 µM | > 5.6 µM | > 7.5 µM | 1.2 µM | 5.4 µM | > 4.7 µM | 0.9 | 6.2 µM | 1.9 µM |  | > 8.5 µM | > 8.7 µM | > 6.3 µM | > 10 µM |  | Selectivity 5-HT2A vs. 5-HT1A [9]: >1
10 | COc1cc(CC(C)N)cc(OC)c1OCCCF (stereo not drawn) [compound 27, 3,5-dimethoxy-4-(3-fluoropropoxy)-amphetamine] | > 9.7 µM | 2.8 µM | > 5.6 µM | > 7.5 µM | > 5.1 µM | 4.4 µM | > 4.7 µM | 1.7 | 2.6 µM | 0.057 ± 0.002 µM |  | > 8.5 µM | > 8.7 µM | > 6.3 µM | > 10 µM |  | 
11 | C=CCOc1c(OC)cc(CC(C)N)cc1OC (stereo not drawn) [compound 31, 4-allyloxy-3,5-dimethoxyamphetamine] | > 9.7 µM | 3.3 µM | > 5.6 µM | > 7.5 µM | > 5.1 µM | 1.7 µM | 3.6 µM | 1.7 | 1.1 µM | 0.19 ± 0.03 µM |  | > 8.5 µM | > 8.7 µM | > 6.3 µM | > 10 µM |  | Increase in 5-HT2A receptor affinity compared with TMA (6) ([9]; ratio of Ki values): ≥ 10 fold; Active dose in humans ([1]; ref Trachsel et al., 2013): 15 to 30 mg
